Here are results for one molecule from ChEMBL document CHEMBL1134516, “Probing the interaction of dengue virus envelope protein with heparin: assessment of glycosaminoglycan-derived inhibitors” (J Med Chem, 2001).

In the experiment the test system is Dengue virus. Kind of experiment: Dissociation constant for Dengue virus envelope protein binding by surface plasmon resonance. The format is functional. (In general: SPR reads the build-up and loss of mass on a sensor chip optically.)

As a reminder, the Kd is the free concentration of one partner at which half of the binding sites on the other are occupied at equilibrium, for simple one-to-one binding. A high value points to weaker binding. As to `Cc1ccc(C(=O)Nc2ccc(S(=O)(=O)O)c3cc(S(=O)(=O)O)cc(S(=O)(=O)O)c23)cc1NC(=O)c1cccc(NC(=O)Nc2cccc(C(=O)Nc3cc(C(=O)Nc4ccc(S(=O)(=O)O)c5cc(S(=O)(=O)O)cc(S(=O)(=O)O)c45)ccc3C)c2)c1` [SURAMIN], the Kd came to 40 nM.
